From the OligoGym collection
Oligonucleotides are written 5' to 3', each unit as a sugar letter and its base; * is a phosphorothioate linkage, no mark a phosphodiester; rarer units and linkages stand in square brackets, end groups in braces. Plain capitals give the bases only. d = 2'-deoxy (DNA); r = 2'-OH (RNA)
Also: test concentration or dose not given here.

Each substance was assayed against UBE2E3 (assay: reporter assay of Huesken 2005). Settings: siRNA.
“sense rGrGrUrUrUrUrGrCrUrGrUrCrUrArUrUrUrGrUdTdT / antisense rArCrArArArUrArGrArCrArGrCrArArArArCrCdTdT” was tested, and the normalised inhibition (eCFP-eYFP dual reporter) was 94.8%.
Substance “sense rCrArArCrCrCrUrGrCrGrGrArUrCrCrUrCrUrGdTdT / antisense rCrArGrArGrGrArUrCrCrGrCrArGrGrGrUrUrGdCdA” has a normalised inhibition (eCFP-eYFP dual reporter) of 56.3%.
“sense rUrGrUrCrUrArUrUrUrGrUrUrCrCrCrUrUrUrUdTdT / antisense rArArArArGrGrGrArArCrArArArUrArGrArCrAdGdC” was tested, and the normalised inhibition (eCFP-eYFP dual reporter) was 86%.
“sense rCrGrCrArCrCrArGrArArUrCrUrArUrCrArCrUdTdT / antisense rArGrUrGrArUrArGrArUrUrCrUrGrGrUrGrCrGdGdA” gave a normalised inhibition (eCFP-eYFP dual reporter) of 73.4%.
In the case of “sense rUrGrArArUrGrGrArGrArUrCrArArCrUrArUrAdTdT / antisense rUrArUrArGrUrUrGrArUrCrUrCrCrArUrUrCrAdTdA”, the normalised inhibition (eCFP-eYFP dual reporter) is reported as 90.5%.
For “sense rUrArCrUrUrUrCrCrGrCrArCrCrArGrArArUrCdTdT / antisense rGrArUrUrCrUrGrGrUrGrCrGrGrArArArGrUrAdAdC”, the normalised inhibition (eCFP-eYFP dual reporter) was 49.2%.
With “sense rUrCrArGrArUrUrArUrCrCrArUrUrUrArArGrCdTdT / antisense rGrCrUrUrArArArUrGrGrArUrArArUrCrUrGrAdTdG” the normalised inhibition (eCFP-eYFP dual reporter) was 38.2%.
In the case of “sense rUrArArUrUrGrCrArGrUrGrCrUrGrGrGrCrCrUdTdT / antisense rArGrGrCrCrCrArGrCrArCrUrGrCrArArUrUrAdGdG”, the normalised inhibition (eCFP-eYFP dual reporter) is reported as 47.3%.
In the case of “sense rArGrCrUrGrArArArUrArArCrCrCrUrUrGrArUdTdT / antisense rArUrCrArArGrGrGrUrUrArUrUrUrCrArGrCrUdAdG”, the normalised inhibition (eCFP-eYFP dual reporter) is reported as 82%.
“sense rCrArArArGrGrUrUrUrUrGrCrUrGrUrCrUrArUdTdT / antisense rArUrArGrArCrArGrCrArArArArCrCrUrUrUrGdAdA” was tested, and the normalised inhibition (eCFP-eYFP dual reporter) was 92.4%.
In the case of “sense rUrGrCrGrGrArUrCrCrUrCrUrGrGrUrUrGrGrAdTdT / antisense rUrCrCrArArCrCrArGrArGrGrArUrCrCrGrCrAdGdG”, the normalised inhibition (eCFP-eYFP dual reporter) is reported as 75.8%.
In the case of “sense rUrArUrUrUrGrUrUrCrCrCrUrUrUrUrGrArCrAdTdT / antisense rUrGrUrCrArArArArGrGrGrArArCrArArArUrAdGdA”, the normalised inhibition (eCFP-eYFP dual reporter) is reported as 45.2%.
For “sense rCrArCrUrCrArGrUrArUrUrUrGrArCrCrArArCdTdT / antisense rGrUrUrGrGrUrCrArArArUrArCrUrGrArGrUrGdGdC”, the normalised inhibition (eCFP-eYFP dual reporter) was 87.1%.
“sense rUrCrArGrArArGrGrArGrCrUrArGrCrUrGrArAdTdT / antisense rUrUrCrArGrCrUrArGrCrUrCrCrUrUrCrUrGrAdAdT” gave a normalised inhibition (eCFP-eYFP dual reporter) of 87.4%.
For “sense rCrCrUrUrGrArUrCrCrUrCrCrUrCrCrUrArArUdTdT / antisense rArUrUrArGrGrArGrGrArGrGrArUrCrArArGrGdGdT”, the normalised inhibition (eCFP-eYFP dual reporter) was 81.6%.
With “sense rUrUrArUrCrCrArUrUrUrArArGrCrCrArCrCrAdTdT / antisense rUrGrGrUrGrGrCrUrUrArArArUrGrGrArUrArAdTdC” the normalised inhibition (eCFP-eYFP dual reporter) was 28.7%.
Work on “sense rCrUrCrCrUrCrCrUrArArUrUrGrCrArGrUrGrCdTdT / antisense rGrCrArCrUrGrCrArArUrUrArGrGrArGrGrArGdGdA” yielded a normalised inhibition (eCFP-eYFP dual reporter) of 34.3%.
Substance “sense rUrCrUrGrGrArUrArUrCrArCrArUrUrUrUrCrAdTdT / antisense rUrGrArArArArUrGrUrGrArUrArUrCrCrArGrAdAdA” has a normalised inhibition (eCFP-eYFP dual reporter) of 68.8%.
“sense rArArUrUrCrArGrArArGrGrArGrCrUrArGrCrUdTdT / antisense rArGrCrUrArGrCrUrCrCrUrUrCrUrGrArArUrUdCdT” was tested, and the normalised inhibition (eCFP-eYFP dual reporter) was 71.2%.
With “sense rArCrArUrCrArArCrArGrUrCrArGrGrGrArGrUdTdT / antisense rArCrUrCrCrCrUrGrArCrUrGrUrUrGrArUrGrUdTdG” the normalised inhibition (eCFP-eYFP dual reporter) was 69.9%.
For “sense rArArArGrGrUrUrArCrUrUrUrCrCrGrCrArCrCdTdT / antisense rGrGrUrGrCrGrGrArArArGrUrArArCrCrUrUrUdGdG”, the normalised inhibition (eCFP-eYFP dual reporter) was 50.7%.
With “sense rArGrUrCrCrCrGrCrUrUrUrGrArCrUrArUrUrUdTdT / antisense rArArArUrArGrUrCrArArArGrCrGrGrGrArCrUdCdC” the normalised inhibition (eCFP-eYFP dual reporter) was 56.7%.
In the case of “sense rUrGrArArGrArArCrArArGrArGrGrArArArGrAdTdT / antisense rUrCrUrUrUrCrCrUrCrUrUrGrUrUrCrUrUrCrAdGdG”, the normalised inhibition (eCFP-eYFP dual reporter) is reported as 89.3%.
For “sense rGrGrArGrCrUrArGrCrUrGrArArArUrArArCrCdTdT / antisense rGrGrUrUrArUrUrUrCrArGrCrUrArGrCrUrCrCdTdT”, the normalised inhibition (eCFP-eYFP dual reporter) was 80.5%.
In the case of “sense rUrCrUrCrUrArGrCrArArArArCrCrArCrUrGrCdTdT / antisense rGrCrArGrUrGrGrUrUrUrUrGrCrUrArGrArGrAdGdT”, the normalised inhibition (eCFP-eYFP dual reporter) is reported as 35.9%.
For “sense rGrCrGrArGrArCrCrCrArGrCrCrGrCrUrCrCrAdTdT / antisense rUrGrGrArGrCrGrGrCrUrGrGrGrUrCrUrCrGrCdTdG”, the normalised inhibition (eCFP-eYFP dual reporter) was 69.2%.
